Experiments:
[1] = Chemical stability of the compound stored under argon in tightly sealed amber bottle at 15 degC assessed as 1-(2-hydroxy-4-{[(1,5-naphthyridin-4-yl)carbamoyl]amino} phenyl)acetamide formation after 10 months by NMR analysis; type: physicochemical; details: 7305 h
[2] = Chemical stability of the compound stored under argon in tightly sealed amber bottle at 15 degC assessed as 1-(2-hydroxy-4-{[(1,5-naphthyridin-4-yl)carbamoyl]amino} phenyl)acetamide formation after 10 months by mass spectrometry analysis; type: physicochemical; details: 7305 h
[3] = biological target: T1, Orexin/Hypocretin receptor type 1 (Homo sapiens, UniProt O43613); experiment: Antagonist activity at OX1 receptor expressed in RD-HGA16 cells assessed as inhibition of orexin A-induced intracellular calcium mobilization after 15 mins by FLIPR assay; type: functional, cell-based
T1 sequence (O43613 whole entry): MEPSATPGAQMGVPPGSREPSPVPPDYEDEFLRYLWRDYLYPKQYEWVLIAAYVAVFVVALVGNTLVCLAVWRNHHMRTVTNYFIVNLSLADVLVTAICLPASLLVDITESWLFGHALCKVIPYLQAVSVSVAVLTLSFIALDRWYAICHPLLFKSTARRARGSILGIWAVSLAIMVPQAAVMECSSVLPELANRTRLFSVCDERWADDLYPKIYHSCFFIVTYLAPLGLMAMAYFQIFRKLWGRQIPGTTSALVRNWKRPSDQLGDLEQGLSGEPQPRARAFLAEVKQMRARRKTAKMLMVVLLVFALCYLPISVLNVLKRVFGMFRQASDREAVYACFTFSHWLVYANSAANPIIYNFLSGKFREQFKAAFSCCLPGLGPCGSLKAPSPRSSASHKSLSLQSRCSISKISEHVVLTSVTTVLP

Rattus norvegicus [4] = experiment: Antagonist activity at OX1 receptor in rat assessed as decrease in alcoholic response at 20 mg/kg, ip after 30 mins; type: functional; design: scale not given: the % may be the effect or the level left; details: route intraperitoneal
Rattus norvegicus [5] = experiment: Antagonist activity at OX1 receptor in rat assessed as decrease in alcoholic response at 5 mg/kg, ip; type: functional; design: scale not given: the % may be the effect or the level left; details: route intraperitoneal
[6] = Chemical stability of the compound as refrigerated solution in 100 % DMSO stored in teflon sealed container up to 3 months by NMR analysis; type: physicochemical
[7] = Solubility of the compound in DMSO at 7.5 mg at room temperature after 15 mins by sonication method in presence of encapsin; type: physicochemical; details: in vivo, 0.25 h
[8] = Solubility of the compound in ACSF at 1.6 mg at room temperature after 45 mins by sonication method; type: physicochemical; details: in vivo, 0.75 h

Cc1nc2ccc(NC(=O)Nc3ccnc4cccnc34)cc2o1.Cl
Stability [1]: Unstable | Stability [2]: Unstable

CC(=O)Nc1ccc(NC(=O)Nc2ccnc3cccnc23)cc1O
IC50 [3]: > 30 µM

Cc1nc2ccc(NC(=O)Nc3ccnc4cccnc34)cc2o1
Activity (Rattus norvegicus [4]): 50% | Activity (Rattus norvegicus [5]): 75% | Stability [6]: Stable | solubility [7]: Insoluble | solubility [8]: Insoluble

— ChEMBL document CHEMBL2157946, “Hydrolytic instability of the important orexin 1 receptor antagonist SB-334867: possible confounding effects on in vivo and in vitro studies” (Bioorg Med Chem Lett, 2012)
